According to patent US7405211B2, “Therapeutic morpholino-substituted compounds” (AstraZeneca AB, priority 2000, dated 2008):

Key:
PI3K α/β isoforms = assay: In vitro enzyme assay PI3K α/β; type: biochemical; details: immunoprecipitated from platelet lysate
Procedure: (§1) In vitro enzyme assays were conducted as a primary screen to determine drug candidate isoform affinity and specificity.
(§2) The α and β isoforms of the PI3K were immunoprecipitated from a platelet lysate using an antibody that recognised the p85 regulatory subunit common to both forms of the enzyme. The γ isoform was produced as a recombinant protein in the Thrombogenix laboratories. […] Standard phosphorylation assays using phosphatidylinositol and ^32P were used to measure the enzyme activity in the immunoprecipates in the presence or absence of an inhibitor. Enzyme activity was determined over a range of inhibitor concentrations to establish an IC50 value.

tyrosine kinase EGF = tyrosine kinase EGF (Homo sapiens, UniProt P00533); assay: Enzyme screening assay: tyrosine kinase EGF; type: biochemical
Description: (§3) The two leading compounds of the quinolone series, TGX155 and TGX84 were screened for activity against seven enzymes related to PI3K in function or substrate specificity, viz: ATPase, PDE4, tyrosine kinases EGF and fyn, protein kinases A and C, and tyrosine phosphatase.

tyrosine kinase fyn = tyrosine kinase fyn (Homo sapiens, UniProt P06241); assay: Enzyme screening assay: tyrosine kinase fyn; type: biochemical
Description: as §3

[1] = test system: PI 3-kinase immunoprecipitated from human platelets; assay: In vitro PI 3-kinase assay (32P incorporation into PI); type: biochemical; details: PI 3-kinase from human platelets, PI substrate
Procedure: The effect of TGX-25, TGX-33, TGX-37, TGX-40, TGX-41, TGX-57, TGX-84, TGX-90, TGX-93, TGX-98, TGX-99, TGX-101, TGX-106, TGX-107, TGX-108, TGX-109, TGX-111, TGX-112, TGX-113, TGX-115, TGX-120, TGX-121, TGX-123, TGX-124, TGX-126, TGX-127, TGX-130 or TGX-131on PI 3-kinase activity was determined using an in vitro PI 3-kinase assay. This assay was performed using PI 3-kinase immunoprecipitated from human platelets as the enzyme and PI as the substrate. The PI 3-kinase activity was quantitated by measuring the enzymatic incorporation of [^32P] into PI, forming PI([^32P]-3)P, as previously described (Susa et al., 1992, The Journal of Biological Chemistry 267(32):22951-22956.
Washed human platelets were lysed in Triton X-100 lysis buffer (10 mM Tris, pH 7.4, 1% Triton X-100, 2 mM EDTA, 1 mM PMSF) for 30 minutes. The Triton X-100 insoluble fraction was removed by centrifugation of the cell lysates at 15,000 g for 10 minutes. PI 3-kinase was immunoprecipitated by mixing 500 μg of the cell lysate with 1 μg of a rabbit anti-rat antibody against the p85/110 form of PI 3-kinase and 30 μl of 50% Protein A-sepharose beads for 2 hours at 4° C. The Protein A-sepharose-bound PI 3-kinase was isolated by pelleting the beads at 15,000 g for 5 seconds, and washing three times with ice-old Triton X-100 lysis buffer followed by four washes with PI 3-kinase assay buffer (20 mM HEPES, pH 7.4, 1 mM EGTA, 5 mM MgCl2).
PI stored in CHCl3 was dried under N2, resuspended in the lipid buffer (50 mM HEPES, pH 7.2, 1 mM EDTA) at a final concentration of 330 μg/ml, and sonicated for 6 minutes on ice. PI([^32P]-3)P was generated by mixing the immunoprecipitated PI 3-kinase for 20 minutes with 40 μl of the PI, 10 μl of ATP (1 mM) and ^32P-r-ATP (0.5 μCi, 1 μCi/nmol), 10 μl of 10× kinase buffer, in a final assay volume of 100 μl adjusted with H2O. TGX-25, TGX-33, TGX-37, TGX-40, TGX-41, TGX-57, TGX-84, TGX-90, TGX-93, TGX-98, TGX-99, TGX-101, TGX-106, TGX-107, TGX-108, TGX-109, TGX-111, TGX-112, TGX-113, TGX-115, TGX-120, TGX-121, TGX-123, TGX-124, TGX-126, TGX-127, TGX-130 or TGX-131 was preincubated with the PI 3-kinase for 5 minutes prior to the addition of ATP. The assay was terminated with 100 μl of 1 N HCl, and the PI([^32P]-3)P product extracted with 200 μl chloroform:methanol (1:1) and 500 μl 2 M KCl. The PI([^32P]-3)P in the chloroform phase was resolved by thin layer chromatography using a solvent system containing CHCl3:MeOH:HAC:H2O (43:38:5:7) (v:v:v:v), and visualized by autoradiography. The PI([^32P]-3)P spots were then scraped off from the TLC plates, deacylated with 1 ml methylamine:butanol:methanol (42:9:47) (v:v:v) for 4 hours at 53° C., and quantitated using a liquid scintillation counter (LKB 1209 RackBETA).

[2] = test system: platelet thrombus formation; assay: Platelet thrombus formation under flow, citrated whole blood, vWf-coated microcapillary tubes (LDH); type: cell-based; details: 50, 100, 200 μM, 600 s^−1
Procedure: Citrated whole blood was pretreated with 50, 100 or 200 μM TGX-84, or control buffer (0.1% DMSO) for 10 minutes at 37° C. Blood was perfused through von Willebrand factor-(vWf) coated microcapillary tubes for 2 minutes at 600 s^−1. Non-adherent cells were removed by perfusion of buffer for 2 minutes at 600 s^−1 and any adherent erythrocytes lysed through treatment with 1% ammonium oxalate. Adherent platelets were then lysed through addition of 1% Triton X-100 and lactate dehydrogenase (LDH) levels (U/L) analysed by spectrophotometry.

PI4K = molecular target: T1, PI4K; assay: In vitro enzyme assay PI4K; type: biochemical; details: PI4K isolated from platelets; read-out: IC50 against PI4K
T1 construct: PI4K was isolated from platelets in a similar manner using a PI4K specific antibody
Procedure: In vitro enzyme assays were conducted as a primary screen to determine drug candidate isoform affinity and specificity. The affinity of two leading compounds of the quinolone series (TGX84 and TGX155) for a closely related enzyme family, PI4K, was also determined to maximise compound specificity and therefore minimise potential adverse biochemical events.
The α and β isoforms of the PI3K were immunoprecipitated from a platelet lysate using an antibody that recognised the p85 regulatory subunit common to both forms of the enzyme. The γ isoform was produced as a recombinant protein in the Thrombogenix laboratories. PI4K was isolated from platelets in a similar manner using a PI4K specific antibody. Standard phosphorylation assays using phosphatidylinositol and ^32P were used to measure the enzyme activity in the immunoprecipates in the presence or absence of an inhibitor. Enzyme activity was determined over a range of inhibitor concentrations to establish an IC50 value.

PI3K γ = molecular target: T2, PI3K γ (Homo sapiens, UniProt P48736); assay: In vitro enzyme assay PI3K γ (recombinant); type: biochemical; details: recombinant γ isoform
T2 construct: made in house
Procedure: as §1, §2

[3] = test system: K562 (leukaemia derived) and U937 (moncytic) cell lines; assay: Cell proliferation assay; type: cell-based; details: 20 μM, 4 day incubation
Procedure: The anti-proliferative activity of the compounds of this invention from all three chemical classes was determined using K562 (leukaemia derived) and U937 (moncytic) cell lines. The cytotoxic activity of the compounds was monitored over four days by counting cell number and determining cell viability using a colourimetric assay metabolic activity.

platelets = assay: Flow-based reconstitution assay: platelet adhesion to vWf-coated glass microslides; type: cell-based; details: 30 min pretreatment, shear rate 1800 s^−1
Procedure: The effect of TGX-40 on platelet adhesion was examined using a flow-based adhesion assay. Washed platelets were pretreated with 10, 25, or 50 μM TGX-40, or control buffer (0.1% DMSO) for 30 minutes at 37° C. prior to reconstitution with red blood cells to a hematocrit of 50%. The platelets and reconstituted red blood cells were perfused through vWf-coated glass microslides for 1 minute at a shear rate of 1800 s^−1. Non-adherent cells were removed by washing for 10 minutes at 1800 s^−1 and the number of adherent platelet were quantitated and expressed as the mean±SEM. As illustrated graphically in FIG. 1, TGX40 inhibited the ability of platelets to adhere in a dose-dependent manner, showing a decrease of 51, 67 and 86% in platelet adhesion when platelets were pretreated with 10, 25, and 50 μM TGX-40.

[4] = test system: rats producing regular cyclic flow reductions (CFRs); assay: Animal model of internal carotid artery occlusion (Folts model, cyclic flow reductions); type: in vivo; details: rat
Description: The inhibitory effect of TGX-40 was examined in the well established animal model of arterial thrombosis of Folts et al., 1982, Circulation 65:248-255. This model is used to investigate the effects of antithrombotic drugs on clotting time in vivo in response to a crush injury followed by arterial stenosis.
The carotid artery of an anesthetized rat is dissected out, and an electromagnetic flow probe is placed around the artery to measure blood flow. Proximal to the flow probe, the artery is clamped with surgical forceps covered with silicone tubing to cause intimal and medial damage to the vessel wall. A ligature, or plastic cylinder of appropriate inside diameter is laced around the artery to produce a 70% reduction in arterial diameter.
Platelets aggregate in the area of the stenosed and damaged arterial vessel, gradually forming an occlusive platelet thrombus, seen as a decrease in blood flow. As the thrombus forms, blood pressure increases, causing the thrombus to fragment and embolize distal to the stenosed site. […] This causes a sudden restoration of blood flow. Platelets again aggregate in the area of the stenosed and damaged arterial vessel, repeating the thrombus-embolization pattern. […]
TGX-40 was administered at doses of 1.6 mg/kg and 3.2 mg/kg via the jugular vein and the stabilization of blood flow was recorded.

[5] = test system: platelet thrombus formation; assay: Whole-blood flow assay: platelet thrombus formation on vWf matrix (platelet LDH); type: cell-based; details: shear rate 1800 s^−1
Procedure: The inhibitory effect of TGX-40 on platelet thrombus formation was examined using a whole-blood flow assay, since thrombi formed by washed platelets are small and poorly reproducible. Anticoagulated whole blood was incubated with 50, 100, or 200 μM TGX-40, or control buffer (0.1% DMSO) for 30 minutes with gentle rocking prior to perfusion through vWf-coated glass microslides for 2 minutes at a shear rate of 1800 s^−1. Non-adherent platelets were removed by washing for 10 minutes at 1800 s^−1, and adherent erythrocytes were lysed with 1% ammonium oxalate. The level of thrombus formation was quantitated indirectly by measuring platelet LDH (U/L) levels in the whole cell lysates by spectrophotometry. Following a 2-minute perfusion of whole blood, platelet-rich thrombi were observed over the surface of the microslide. […] As illustrated graphically in FIG. 2, pretreatment of whole blood with 50, 100, and 200 μM TGX-40 led to a decrease of 25, 53, and 80% in thrombus formation relative to control.

T2 sequence (P48736 whole entry, species assumed, canonical isoform): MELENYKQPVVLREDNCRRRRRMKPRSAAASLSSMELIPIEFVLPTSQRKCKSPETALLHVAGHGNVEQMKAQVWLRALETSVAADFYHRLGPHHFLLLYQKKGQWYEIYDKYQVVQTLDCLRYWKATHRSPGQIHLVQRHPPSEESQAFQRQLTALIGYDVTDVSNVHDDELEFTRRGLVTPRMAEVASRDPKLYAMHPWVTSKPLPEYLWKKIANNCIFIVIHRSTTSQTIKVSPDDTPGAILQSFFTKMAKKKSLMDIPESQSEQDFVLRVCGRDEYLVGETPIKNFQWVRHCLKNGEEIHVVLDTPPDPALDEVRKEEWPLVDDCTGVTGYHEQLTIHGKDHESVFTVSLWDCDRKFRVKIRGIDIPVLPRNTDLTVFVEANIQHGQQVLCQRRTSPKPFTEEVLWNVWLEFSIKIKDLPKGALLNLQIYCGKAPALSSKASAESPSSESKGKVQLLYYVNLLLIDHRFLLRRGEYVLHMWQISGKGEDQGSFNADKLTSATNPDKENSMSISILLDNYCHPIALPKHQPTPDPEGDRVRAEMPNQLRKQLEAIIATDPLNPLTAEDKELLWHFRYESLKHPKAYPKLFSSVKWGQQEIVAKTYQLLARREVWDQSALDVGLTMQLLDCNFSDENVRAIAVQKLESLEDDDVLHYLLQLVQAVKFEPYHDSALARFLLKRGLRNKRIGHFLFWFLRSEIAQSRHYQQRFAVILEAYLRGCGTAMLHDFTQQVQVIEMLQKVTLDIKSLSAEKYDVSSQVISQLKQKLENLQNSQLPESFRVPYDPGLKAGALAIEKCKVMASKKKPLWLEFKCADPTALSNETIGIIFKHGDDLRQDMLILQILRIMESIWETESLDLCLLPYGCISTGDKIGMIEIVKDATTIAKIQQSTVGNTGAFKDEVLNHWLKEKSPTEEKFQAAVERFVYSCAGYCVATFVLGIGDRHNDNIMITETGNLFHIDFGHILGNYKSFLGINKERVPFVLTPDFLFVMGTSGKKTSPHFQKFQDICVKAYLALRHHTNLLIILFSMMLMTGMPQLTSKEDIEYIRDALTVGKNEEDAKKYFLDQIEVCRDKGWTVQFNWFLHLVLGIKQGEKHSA
Chain of tyrosine kinase fyn (P06241 whole entry): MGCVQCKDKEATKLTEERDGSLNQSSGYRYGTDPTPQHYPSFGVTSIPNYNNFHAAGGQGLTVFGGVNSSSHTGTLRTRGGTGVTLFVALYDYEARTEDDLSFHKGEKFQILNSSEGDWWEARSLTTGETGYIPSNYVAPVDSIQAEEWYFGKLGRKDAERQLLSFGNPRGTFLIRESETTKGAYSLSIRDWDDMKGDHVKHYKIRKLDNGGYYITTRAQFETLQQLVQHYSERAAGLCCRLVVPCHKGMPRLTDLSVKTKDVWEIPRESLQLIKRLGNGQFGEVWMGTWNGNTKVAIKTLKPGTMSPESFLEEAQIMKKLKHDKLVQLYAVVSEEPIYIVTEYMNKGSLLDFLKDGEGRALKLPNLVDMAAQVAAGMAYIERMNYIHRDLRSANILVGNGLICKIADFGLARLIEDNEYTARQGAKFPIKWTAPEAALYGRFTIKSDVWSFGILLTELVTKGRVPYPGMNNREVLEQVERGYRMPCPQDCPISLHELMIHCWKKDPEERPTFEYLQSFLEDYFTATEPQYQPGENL
Chain of tyrosine kinase EGF (P00533 25-1210): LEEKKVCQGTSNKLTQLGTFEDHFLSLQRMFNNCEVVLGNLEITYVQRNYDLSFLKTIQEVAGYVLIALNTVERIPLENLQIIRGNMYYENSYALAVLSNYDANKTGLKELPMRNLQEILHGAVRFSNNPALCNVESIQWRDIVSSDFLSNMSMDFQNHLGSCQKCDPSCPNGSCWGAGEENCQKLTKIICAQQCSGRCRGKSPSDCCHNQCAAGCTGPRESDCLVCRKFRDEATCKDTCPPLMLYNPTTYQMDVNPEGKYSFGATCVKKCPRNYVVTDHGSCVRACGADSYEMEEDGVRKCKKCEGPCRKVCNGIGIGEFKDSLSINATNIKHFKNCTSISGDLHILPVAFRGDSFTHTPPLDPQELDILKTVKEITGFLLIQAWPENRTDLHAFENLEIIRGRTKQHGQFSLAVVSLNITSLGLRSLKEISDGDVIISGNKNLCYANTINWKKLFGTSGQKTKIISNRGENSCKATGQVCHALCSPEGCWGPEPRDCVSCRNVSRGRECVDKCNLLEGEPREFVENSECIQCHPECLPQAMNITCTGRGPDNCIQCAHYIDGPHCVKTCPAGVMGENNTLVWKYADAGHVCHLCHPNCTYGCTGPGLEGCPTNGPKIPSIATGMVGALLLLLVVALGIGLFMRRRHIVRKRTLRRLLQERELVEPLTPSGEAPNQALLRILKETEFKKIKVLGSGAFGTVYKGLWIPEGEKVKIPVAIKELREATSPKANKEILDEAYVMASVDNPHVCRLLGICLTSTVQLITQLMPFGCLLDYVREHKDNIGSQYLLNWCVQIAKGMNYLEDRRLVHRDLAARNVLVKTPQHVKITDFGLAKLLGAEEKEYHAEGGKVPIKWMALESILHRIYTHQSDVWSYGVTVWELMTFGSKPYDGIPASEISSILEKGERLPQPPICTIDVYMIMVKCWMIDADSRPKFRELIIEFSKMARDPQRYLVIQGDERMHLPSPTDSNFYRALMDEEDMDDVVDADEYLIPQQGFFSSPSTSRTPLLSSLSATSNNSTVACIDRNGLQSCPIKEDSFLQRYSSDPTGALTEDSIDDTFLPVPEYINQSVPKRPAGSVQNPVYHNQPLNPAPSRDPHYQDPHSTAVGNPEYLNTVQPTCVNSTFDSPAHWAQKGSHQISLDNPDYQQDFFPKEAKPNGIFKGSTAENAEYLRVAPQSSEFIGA

Row | IC50 (PI3K α/β isoforms) | IC50 (tyrosine kinase EGF) | IC50 (tyrosine kinase fyn) | IC50 [1] | IC50 (PI4K) | IC50 (PI3K γ) | SMILES | % Cells remaining [3] | further results
1 | 0.1 µM | > 100 µM | > 100 µM | 0.1 µM | 100 µM | 5 µM | O=c1cc(N2CCOCC2)[nH]c2c(Oc3ccccc3)cccc12 [TGX-84, 2-Morpholino-8-phenoxy-4-quinolone] | – | thrombosis formation relative to control [2]: decrease in thrombosis formation relative to control
2 | – | – | – | 0.2 µM | – | – | Cc1cc(N[C@H](C)c2ccccc2)c2nc(N3CCOCC3)cc(=O)n2c1 [TGX-123] | 10% | –
3 | – | – | – | – | – | – | Cc1cc(CNc2ccc(F)cc2C)c2nc(N3CCOCC3)cc(=O)n2c1 [TGX-186] | 1.5% | –
4 | 0.05 µM | – | – | 0.05 µM | – | 5 to 10 µM | Cc1cc(NCc2ccccc2Cl)c2nc(N3CCOCC3)cc(=O)n2c1 [TGX-167] | 1.5% | –
5 | 0.02 µM | > 100 µM | > 100 µM | 0.02 µM | 100 µM | 5 µM | Cc1cc(F)ccc1Oc1cccc2c(=O)cc(N3CCOCC3)[nH]c12 [TGX-155, 8-(4′-Fluoro-2′-methylphenoxy)-2-morpholino-4-quinolone] | – | –
6 | – | – | – | ~1.5 µM | – | – | O=c1cc(N2CCOCC2)nc2c(Cc3ccccc3)cccn12 [TGX-40] | 75% | decrease in platelet adhesion (platelets; 10 μM): 51%; decrease in platelet adhesion (platelets; 25 μM): 67%; decrease in platelet adhesion (platelets; 50 μM): 86%; treated animals returned to baseline within 10 minutes ([4]; 1.6 mg/kg via the jugular vein): 90%; treated animals returned to baseline within 10 minutes ([4]; 3.2 mg/kg via the jugular vein): 90%; decrease in thrombus formation relative to control ([5]; 50 μM): 25%; decrease in thrombus formation relative to control ([5]; 100 μM): 53%; decrease in thrombus formation relative to control ([5]; 200 μM): 80%
